{"source": "patent US12447190B1", "about": "“Vasopressin premix systems and uses thereof” (Baxter International Inc., priority 2023, dated 2025)", "origin": "cited, not measured here", "key": {"[1]": {"tested_on": "patients with vasodilatory shock"}}, "data": [{"smiles": "NC(=O)CC[C@@H]1NC(=O)[C@H](Cc2ccccc2)NC(=O)[C@H](Cc2ccc(O)cc2)NC(=O)[C@@H](N)CSSC[C@@H](C(=O)N2CCC[C@H]2C(=O)N[C@@H](CCCN=C(N)N)C(=O)NCC(N)=O)NC(=O)[C@H](CC(N)=O)NC1=O", "note": "[vasopressin, Cyclo (1-6) L-Cysteinyl-L-Tyrosyl-L-Phenylalanyl-L-Glutaminyl-L-Asparaginyl-L-Cysteinyl-L-Prolyl-L-Arginyl-L-Glycinamide]", "values": [{"measurement": "time for pressor effect to fade", "setting": "[1]; after stopping the infusion", "value": "≤ 20", "unit": "min"}, {"measurement": "time for pressor effect to reach its peak", "setting": "[1]; infusion in patients", "value": "≤ 15", "unit": "min"}, {"measurement": "time to steady state plasma concentrations", "setting": "continuous intravenous infusion", "value": 30, "unit": "min"}, {"measurement": "vasopressin plasma concentrations versus infusion rate", "setting": "infusion rates from 10 to 200 U/kg/min", "value": "increases linearly"}]}]}
